The subject of one data set is DLD1-DR cells. The following applies: DLD1-DR cells developed with resistance to 5′-FU; cited from earlier work.
The subject of the next data set is DLD-1 cells. Particulars: cited from earlier work.
Another data set has as its system CAL27 tumors. Briefly: MRMI of OSCC flank xenografts, CAL27. The class given is in vivo, mice. Particulars: gadoteridol 0.10 mmol/kg. The method, then:
(§1) Animal experiments were performed under an animal protocol approved by the Institutional Animal Care and Use Committee (IACUC) at Case Western Reserve University (CWRU, Cleveland, OH, USA). Female 4-week-old athymic nude mice purchased from the Jackson Laboratory (Bar Harbor, ME, USA) were housed in the Animal Core Facility at CWRU. Anesthetized mice were subcutaneously inoculated in the right flank with 4×10^6 GFP/luciferase-expressing OSCC cells (n=5 per cell line) in 100 μL of a 1:1 mixture of Matrigel HC (Corning) and DPBS. Tumor size was monitored with caliper measurements. After 4 weeks of growth, tumors were sufficiently large for MRI experiments.
MRI experiments were performed with a 3T MRS-3000 system (MR Solutions, Surrey, UK). Tumor-bearing mice were imaged before and at 10, 20, and 30 minutes post-injection of the targeted contrast agent, MT218 (Molecular Theranostics, LLC, Cleveland, OH, USA), at a dose of 0.04 mmol/kg using a T1-weighted fast spin-echo axial sequence with respiratory gating (TR=305 ms, TE=11 ms, FOV=40×40 mm, slice thickness=1 mm, number of slices=15, Nav=2, matrix=256×248). […]
(§2) Images were exported in DICOM format and analyzed using FIJI. Contrast-to-noise ratio (CNR) for each time point was calculated as the difference between the mean tumor intensity and the mean muscle intensity, divided by the standard deviation of noise.

In data set [1] the test system is PANC-1-GFP-Luc intrapancreatic tumor xenografts. Briefly: MRMI of PANC-1-GFP-Luc intrapancreatic tumor xenografts. The class given is in vivo, mice. Particulars: 0.1 mmol/kg, 10 min postinjection. The method, then: (§3) For flank xenograft models, 4×10^6 Capan-1 cells suspended in 100 μL of a 6 mg/mL Matrigel (Corning, Corning, NY) solution was injected subcutaneously into the flank of eight-week-old female nu/nu mice. The tumor bearing mice were imaged after tumor volumes exceeded 300 mm^3. For orthotopic intrapancreatic models, the pancreas of four-week-old female nu/nu mice were surgically exposed and 1×10^6 BxPC3-GFP-Luc or PANC-1-GFP-Luc cells suspended in 100 μL of an Matrigel solution (6 mg/mL) was injected into the pancreatic tissue. Prior to imaging, growth of tumor was verified by bioluminescence imaging with intraperitoneal injection of d-luciferin on IVIS Spectrum system (Perkin Elmer, Waltham, MA).
(§4) Mice bearing intrapancreatic tumors were anesthetized and a tail vein catheter was inserted. Image acquisition was performed on a MR Solutions 3T MRS 3000 scanner with a mouse radiofrequency coil. Axial images were obtained using a Fast Spin Echo (FSE) MRI sequence (305 ms TR, 11 ms TE, 90° F.A, 4 cm×4 cm FOV, 1 mm slice thickness, 10 slices, echo train length=4, echo spacing=11 ms, 4 averages, 256×256 matrix, […] cm/pixel resolution) with respiratory gating. Images were acquired before contrast and at different time points after contrast injection at a dose of 0.1 mmol/kg (100 μL). For competitive binding experiments, a 5:1 molar ratio of free ZD2 peptide to MT218 was injected in mice bearing intrapancreatic BxPC3 tumor xenografts (n=3) at a dose of 0.1 mmol MT218/kg (100 μL). Images obtained on the MR Solutions 3T scanner were normalized using the Surscalereader.exe (MR Solutions, Guildford, UK) program supplied.
Image files were exported and analyzed in Horus software. ROIs were drawn in the tumor, liver, kidney, and muscle. […] The contrast-to-noise ratio of the tumor (CNR) was calculated using the following equation, where σ_noise is the standard deviation of intensities from an ROI drawn outside of the mouse body: […]

The test system of data set [2] is Capan-1 flank tumor xenografts. Put plainly: MRMI of Capan-1 flank tumor xenografts. The class given is in vivo, mice. Particulars: 0.1 mmol/kg; MT218 at 15 minutes post-injection, maintained at least 35 minutes; Gd(HP-DO3A) for the duration of the experiment. The method, then:
as §3
Flank tumor-bearing mice were anesthetized and a tail vein catheter inserted. MR image acquisition was performed on a 7T Biospin (Bruker, Billerica, MA) preclinical small animal scanner with a volume radiofrequency coil. Axial images were obtained using a multi-spin multi-echo (MSME) MRI sequence (500 ms TR, 8.1 ms TE, 900 FA, 4.50 cm×4.50 cm FOV, 1.50 mm slice thickness, 16 slices, 2 averages, 200×200 matrix, 0.0225×0.0225 cm/pixel resolution). Contrast agents were injected at a dose of 0.1 mmol/kg (100 μL) via the tail vein catheter, followed by a saline flush. Images of the tumors were acquired before contrast and at various time points after contrast administration. Gd(HP-DO3A) was used as a control.
Image files were exported and analyzed in Horus software. ROIs were drawn in the tumor, liver, kidney, and muscle. Muscle ROIs were taken from muscle, with other structures (liver, kidney, tumor) identified after comparison with published images and comparison with anatomical landmarks or bioluminescent imaging. Size of ROIs drawn for image analysis are summarized in Supplemental Table S1. The contrast-to-noise ratio of the tumor (CNR) was calculated using the following equation, where σ_noise is the standard deviation of intensities from an ROI drawn outside of the mouse body: […]

The test system of data set [3] is BxPC3-GFP-Luc intrapancreatic tumors. Briefly: MRMI of BxPC3-GFP-Luc intrapancreatic tumors. The class given is in vivo, mice. The following applies: 0.1 mmol/kg, 10 min post-injection. The method, then:
as §3, §4
Image files were exported and analyzed in Horus software. ROIs were drawn in the tumor, liver, kidney, and muscle. Muscle ROIs were taken from muscle, with other structures (liver, kidney, tumor) identified after comparison with published images and comparison with anatomical landmarks or bioluminescent imaging. Size of ROIs drawn for image analysis are summarized in Supplemental Table S1. The contrast-to-noise ratio of the tumor (CNR) was calculated using the following equation, where σ_noise is the standard deviation of intensities from an ROI drawn outside of the mouse body:
Image contrast was reported as fold enhancement of contrast to noise ratio of postcontrast images over precontrast images using Fold Enhancement=CNRpost/CNRpre. Statistical analysis of CNR was performed in Minitab Express (Minitab Inc, State College, PA). One-way ANOVA with Fisher Individual Tests for Differences of Means post-hoc testing was performed to determine statistical significance between greater than two means (p<0.05). Student's T test was used to determine statistical significance between two means (p<0.05).

The next data set relates to HSC3 tumors. Put plainly: MRMI of OSCC flank xenografts, HSC3. The class given is in vivo, mice. Particulars: gadoteridol 0.10 mmol/kg. The method, then:
as §1
MRI experiments were performed with a 3T MRS-3000 system (MR Solutions, Surrey, UK). Tumor-bearing mice were imaged before and at 10, 20, […] spin-echo axial sequence with respiratory gating (TR=305 ms, TE=11 ms, FOV=40×40 mm, slice thickness=1 mm, number of slices=15, Nav=2, matrix=256×248). This protocol was repeated on the same mice 2 days later using the untargeted clinical agent gadoteridol at the clinical dose of 0.10 mmol/kg.
as §2

A further data set relates to SCC4 tumors. Briefly: MRMI of OSCC flank xenografts, SCC4. The class given is in vivo, mice. The following applies: gadoteridol 0.10 mmol/kg. The method, then:
as §1
MRI experiments were performed with a 3T MRS-3000 system (MR Solutions, Surrey, UK). […] This protocol was repeated on the same mice 2 days later using the untargeted clinical agent gadoteridol at the clinical dose of 0.10 mmol/kg.
as §2

A further data set is described as follows: Relaxivity measurements. The class given is physicochemical. The following applies: at 3 T, DPBS buffer. The method, then:
The T1 and T2 values of MT218 and Gd(HP-DO3A) solutions were determined using a 3T MRS 3000 scanner (MR Solutions, Guildford, UK). Solutions of MT218 were prepared at concentrations of 0, 0.25, 0.5, 1, and 2 mM in DPBS buffer (Gibco, Gaithersburg, MD). T1 values were measured using an inversion recovery-fast low angle shot (IR-FLASH) sequence (i=10 ms, TE=4 ms, FA=8°, echoes/frames=128, FOV=40 mm×40 mm, slice thickness =2 mm, number of averages=1, time delay=4000 ms, sample period=200, matrix=256×128). T2 values were obtained using a multi-echo multi-slice (MEMS) sequence (TE=15 ms, […], echoes=10, FOV: 40 mm×40 mm, slice thickness=1 mm, number of averages=1, matrix=256×192). The r1 and r2 relaxivities were calculated from the slopes of 1/T1 and 1/T2 vs. Gd concentration plots, respectively.

Data set [4] addresses T1, EDB fragment of FN (expressed in E. coli, labelled with NT-647) (UniProt P02751 1266-1356, limits assumed, labelled with amine-reactive dye NT-647).
T1 construct: domain: EDB fragment of FN
Put plainly: microscale thermophoresis, MT218 titrated against a fixed concentration of NT-647-labelled EDB fragment, 25 °C [panel B]. The method, then:
(§5) The binding affinity of MT218 was determined with microscale thermophoresis (MST) using a Nanotemper™ Monolith NT.115 instrument (NanoTemper Technologies, Munich, Germany). The EDB fragment of FN was expressed in E. coli, purified, and labelled with amine-reactive dye NT-647. MT218 was dissolved into assay buffer (50 mM PBS w/0.05% Tween-20). This solution was further diluted using assay buffer to give a series of MT218 working solutions. Each MT218 working solution was then mixed with a fixed concentration of fluorescently labeled EDB fragment. The mixtures of MT218 and EDB were then loaded into standard capillaries, and MST measurements were performed at 25° C. using 20-80% light-emitting diode power and 40% infrared-laser power at varying concentrations of MT218.
(In general: MST reads how a fluorescent partner responds to local heating, with and without ligand.)

For data set [5], the target named is extradomain-B fibronectin (EDB-FN) (human) (UniProt P02751). Briefly: cell-based or functional assay.
Data set [6] addresses T1, EDB fragment of FN (expressed in E. …). Put plainly: microscale thermophoresis, NT-647-labelled EDB fragment at fixed concentration, MT218 titrated, 25 °C. The method, then:
as §5
MT218 is a small molecular conjugate of ZD2 peptide to a macrocyclic clinical MRI contrast agent Gd(HP-DO3A). […] The T₁ and T₂ relaxivities of MT218 were measured to be 6.07±1.13 s⁻¹ mM⁻¹ and 8.20±0.18 s⁻¹ mM⁻¹, respectively, at 3 T. T₁ and T₂ relaxivities of Gd(HP-DO3A) were measured to be 3.20±0.96 s⁻¹ mM⁻¹ and 5.12±0.18 s⁻¹ mM⁻¹, respectively, at 3 T.

No end group written: not given here.

The text below walks through data of US20240374763A1, “DIAGNOSIS AND MONITORING USING EXTRADOMAIN-B FIBRONECTIN TARGETED PROBES” (Case Western Reserve University, priority 2020, published 2024).

T1 sequence (P02751 1266-1356 limits assumed): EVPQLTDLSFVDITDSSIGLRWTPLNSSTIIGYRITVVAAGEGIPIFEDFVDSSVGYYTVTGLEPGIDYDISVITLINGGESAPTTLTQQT
Sequence of extradomain-B fibronectin (EDB-FN) (human) (P02751 32-2477): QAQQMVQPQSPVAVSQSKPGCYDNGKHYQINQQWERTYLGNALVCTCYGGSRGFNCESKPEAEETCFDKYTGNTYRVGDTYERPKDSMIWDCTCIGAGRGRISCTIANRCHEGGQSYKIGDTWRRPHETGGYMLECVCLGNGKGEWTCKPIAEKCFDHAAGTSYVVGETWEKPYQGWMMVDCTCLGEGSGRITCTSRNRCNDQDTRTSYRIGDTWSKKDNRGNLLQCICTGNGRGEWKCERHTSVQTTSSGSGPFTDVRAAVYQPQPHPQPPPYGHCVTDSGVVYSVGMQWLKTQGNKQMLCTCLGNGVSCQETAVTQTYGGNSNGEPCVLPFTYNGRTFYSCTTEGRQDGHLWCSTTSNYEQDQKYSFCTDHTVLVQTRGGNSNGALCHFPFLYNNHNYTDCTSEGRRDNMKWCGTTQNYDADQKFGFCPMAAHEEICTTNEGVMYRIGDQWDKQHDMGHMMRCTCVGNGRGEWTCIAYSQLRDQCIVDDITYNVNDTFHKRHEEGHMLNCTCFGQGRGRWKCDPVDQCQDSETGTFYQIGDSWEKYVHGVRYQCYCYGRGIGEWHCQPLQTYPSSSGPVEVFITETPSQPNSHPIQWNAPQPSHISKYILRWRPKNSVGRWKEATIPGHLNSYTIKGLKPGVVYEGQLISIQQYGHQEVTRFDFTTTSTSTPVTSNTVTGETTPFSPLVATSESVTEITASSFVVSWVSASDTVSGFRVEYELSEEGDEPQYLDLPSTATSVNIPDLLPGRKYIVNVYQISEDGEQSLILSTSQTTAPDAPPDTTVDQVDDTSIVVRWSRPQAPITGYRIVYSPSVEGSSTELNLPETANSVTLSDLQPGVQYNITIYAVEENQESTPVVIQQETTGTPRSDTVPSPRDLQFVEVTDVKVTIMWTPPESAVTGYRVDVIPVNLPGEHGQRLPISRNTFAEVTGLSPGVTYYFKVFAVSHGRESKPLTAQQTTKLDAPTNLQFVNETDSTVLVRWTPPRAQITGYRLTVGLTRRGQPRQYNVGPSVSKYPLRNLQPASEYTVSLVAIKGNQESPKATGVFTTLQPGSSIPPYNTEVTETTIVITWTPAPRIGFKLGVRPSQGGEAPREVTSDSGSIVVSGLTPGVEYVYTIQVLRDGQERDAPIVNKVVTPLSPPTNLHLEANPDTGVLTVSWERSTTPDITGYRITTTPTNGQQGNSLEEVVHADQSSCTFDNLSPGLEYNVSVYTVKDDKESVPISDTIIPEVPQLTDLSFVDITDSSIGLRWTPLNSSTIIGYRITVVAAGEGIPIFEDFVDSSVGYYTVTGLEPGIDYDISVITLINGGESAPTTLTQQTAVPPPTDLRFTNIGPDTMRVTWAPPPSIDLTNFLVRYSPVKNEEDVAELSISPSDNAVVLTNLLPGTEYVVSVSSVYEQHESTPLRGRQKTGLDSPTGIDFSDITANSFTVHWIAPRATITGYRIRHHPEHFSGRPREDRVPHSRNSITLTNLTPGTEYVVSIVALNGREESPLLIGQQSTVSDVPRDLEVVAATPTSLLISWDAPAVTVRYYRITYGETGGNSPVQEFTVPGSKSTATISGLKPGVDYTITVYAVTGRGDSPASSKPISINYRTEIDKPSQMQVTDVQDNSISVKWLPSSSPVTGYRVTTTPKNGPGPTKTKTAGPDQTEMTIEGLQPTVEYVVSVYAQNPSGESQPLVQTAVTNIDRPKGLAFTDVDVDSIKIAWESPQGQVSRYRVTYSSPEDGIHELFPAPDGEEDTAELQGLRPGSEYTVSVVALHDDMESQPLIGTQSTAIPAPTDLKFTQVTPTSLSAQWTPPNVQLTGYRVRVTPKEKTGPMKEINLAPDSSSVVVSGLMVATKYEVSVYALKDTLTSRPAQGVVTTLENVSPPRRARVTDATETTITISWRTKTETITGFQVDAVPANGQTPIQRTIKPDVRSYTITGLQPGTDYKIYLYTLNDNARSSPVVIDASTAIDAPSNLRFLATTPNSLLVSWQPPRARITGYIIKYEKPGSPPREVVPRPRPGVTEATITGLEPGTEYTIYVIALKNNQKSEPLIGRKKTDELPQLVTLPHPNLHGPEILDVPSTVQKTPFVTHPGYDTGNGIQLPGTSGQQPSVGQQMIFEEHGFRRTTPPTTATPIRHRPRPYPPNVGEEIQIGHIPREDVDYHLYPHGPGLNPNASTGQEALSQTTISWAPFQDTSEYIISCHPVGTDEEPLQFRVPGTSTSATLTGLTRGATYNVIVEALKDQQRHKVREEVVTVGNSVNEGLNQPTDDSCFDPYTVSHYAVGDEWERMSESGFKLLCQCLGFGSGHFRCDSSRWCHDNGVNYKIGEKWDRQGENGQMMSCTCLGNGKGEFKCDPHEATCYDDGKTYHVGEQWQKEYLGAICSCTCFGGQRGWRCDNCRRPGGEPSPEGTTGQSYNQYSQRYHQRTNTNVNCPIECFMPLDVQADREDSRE

In general, IC50 refers to the midpoint of a concentration-inhibition curve. `O=c1[nH]cc(F)c(=O)[nH]1` [5′-FU, 5′-fluorouracil]: the IC50 in the data set on DLD1-DR cells is 211 µM; in the data set with DLD-1 cells, 2.5 µM.
“Gd(HP-DO3A) [gadoteridol, reference compound]”: the “average maximum enhancement (CNR)” value was found to be 2.27±0.18 with CAL27 tumors, 2.18±0.07 in the data set on HSC3 tumors and 2.57±0.28 with SCC4 tumors. For the same molecule, the “intratumoral CNR increase” value in data set [1] came to 2.35 fold. In data set [2], the “increase of contrast to noise ratio (CNR)” value is 1.77 fold. Further, the “tumor CNR increase” value in [3] is “approximately 2.5 fold”. The same molecule showed a T1 relaxivity in the data set “Relaxivity measurements” of 3.20 ± 0.96 s⁻¹ mM⁻¹. The T2 relaxivity in “Relaxivity measurements” turned out to be 5.12 ± 0.18 s⁻¹ mM⁻¹.

B1: ZD2-N3-Gd(HP-DO3A) (MT218) (peptide)
peptide: TVRTSAD
modifications: also: conjugated to Gd(HP-DO3A) by click reaction of alkynyl-ZD2 with N3-Gd(HP-DO3A), residue of attachment not given here, Gd complex
notes: Small peptide conjugate of the clinical contrast agent gadoteridol; also called EDB-FN-targeted contrast agent; ZD2 targeted MRI contrast agent
Broadly, the EC50 (read off the curve) is the concentration at which the effect is half-maximal. In general, Kd refers to the free concentration of one partner at which half of the binding sites on the other are occupied at equilibrium, for simple one-to-one binding. B1: the “EC50 (read off the curve)” value in data set [4] was approximately 3 µM. In data set [5], the tumor CNR increase (MRMI) in the BxPC3-GFP-Luc intrapancreatic model, MT218 co-injected with an excess of free ZD2 peptide was found to be 2.5 fold and the tumor CNR increase (MRMI) in the BxPC3-GFP-Luc intrapancreatic model, MT218 without the free peptide stood at 4.5 fold. For the same molecule, the dissociation constant Kd in data set [6] is 3.2 µM.
